The record followed here is patent publication US10941152B2, “Pyrazole compounds as modulators of FSHR and uses thereof” (TOCOPHERX, INC., priority 2014, dated 2021).

Structures are written as SMILES.

Usually EC50 stands for the concentration needed to bring the measured effect to its halfway point.

Experiment [1] deals with T1, FSHR (Homo sapiens, UniProt P23945).
T1 construct: expressed in transfected cells; host or cells: CHO (Cho-FSHR-LUC-1-1-43)
T1 sequence (P23945 18-695): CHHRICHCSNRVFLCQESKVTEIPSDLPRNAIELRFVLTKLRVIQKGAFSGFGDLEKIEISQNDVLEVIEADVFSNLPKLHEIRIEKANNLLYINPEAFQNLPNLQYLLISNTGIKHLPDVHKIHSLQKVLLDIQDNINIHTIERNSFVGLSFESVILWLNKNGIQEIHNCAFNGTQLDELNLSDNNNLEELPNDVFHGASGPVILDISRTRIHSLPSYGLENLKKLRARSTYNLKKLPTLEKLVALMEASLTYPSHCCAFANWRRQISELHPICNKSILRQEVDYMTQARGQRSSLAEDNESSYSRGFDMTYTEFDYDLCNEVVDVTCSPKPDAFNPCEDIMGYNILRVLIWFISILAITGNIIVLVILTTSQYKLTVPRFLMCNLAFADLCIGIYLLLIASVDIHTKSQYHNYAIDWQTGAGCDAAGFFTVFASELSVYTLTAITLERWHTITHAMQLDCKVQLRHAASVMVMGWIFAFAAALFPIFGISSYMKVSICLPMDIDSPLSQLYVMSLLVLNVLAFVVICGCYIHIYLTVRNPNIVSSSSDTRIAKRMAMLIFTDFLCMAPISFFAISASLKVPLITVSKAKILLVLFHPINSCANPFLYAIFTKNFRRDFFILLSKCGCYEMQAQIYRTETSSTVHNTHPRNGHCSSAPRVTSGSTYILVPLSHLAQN
Put plainly: EC50 of cyclic AMP production in CHO FSHR cells + EC20 FSH (Assay A). The experiment is classed as cell-based. The conditions noted are these: cyclic AMP production in CHO FSHR cells + EC20 FSH (0.265 pM), HTRF. The essentials:
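cAMP was detected by HTRF as the 665/620 nm ratio. The CHO-FSHR cells had first been exposed for 1 h at 37° C to test compound together with 0.265 pM FSH (EC20) and 200 μM IBMX. Responses are given as percent of the FSH standard maximum.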
In general terms: TR-FRET usually uses a lanthanide donor and a delayed reading to cut background.

Experiment [2] deals with T2, follicle-stimulating hormone (FSH) receptor (Rattus norvegicus, UniProt P20395).
T2 construct: endogenous in cells; host or cells: rat granulosa cells
T2 sequence (P20395 18-692): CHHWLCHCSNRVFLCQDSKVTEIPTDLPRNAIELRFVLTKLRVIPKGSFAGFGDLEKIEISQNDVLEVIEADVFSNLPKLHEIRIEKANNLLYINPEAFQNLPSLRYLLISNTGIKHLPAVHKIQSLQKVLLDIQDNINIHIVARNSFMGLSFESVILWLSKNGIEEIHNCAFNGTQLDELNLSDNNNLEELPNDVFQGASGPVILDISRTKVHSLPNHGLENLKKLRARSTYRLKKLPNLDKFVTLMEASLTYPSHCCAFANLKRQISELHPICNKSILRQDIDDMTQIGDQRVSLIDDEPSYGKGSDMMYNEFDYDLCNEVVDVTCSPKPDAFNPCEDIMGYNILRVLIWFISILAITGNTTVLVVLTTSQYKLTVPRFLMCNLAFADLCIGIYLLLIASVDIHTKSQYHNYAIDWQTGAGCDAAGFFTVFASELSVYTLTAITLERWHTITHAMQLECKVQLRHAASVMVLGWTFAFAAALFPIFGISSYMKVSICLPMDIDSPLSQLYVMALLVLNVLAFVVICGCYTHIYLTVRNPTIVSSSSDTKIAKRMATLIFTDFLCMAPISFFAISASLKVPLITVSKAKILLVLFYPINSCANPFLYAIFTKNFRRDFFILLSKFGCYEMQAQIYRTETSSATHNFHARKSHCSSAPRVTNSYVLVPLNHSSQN
The experiment in a line: Rat granulosa EC50 FSH (Assay B). The experiment is classed as cell-based. Here is the method:
Example 25. Rat granulosa EC50 FSH (Assay B)
The assay was performed pursuant to the teaching of Yanofsky et al. (2006) Allosteric activation of the follicle-stimulating hormone (FSH) receptor by selective, nonpeptide agonists (JBC 281(19): 13226-13233, which is incorporated by reference in the disclosure of the invention).

With `COc1cc2c(cc1-c1cncc(C(N)=O)c1)-c1c(c(C(=O)N(C)C(C)(C)C)nn1-c1ccsc1)CO2` [Compound 167], the EC50 in experiment [1] was under 10 nM; in experiment [2], 10 to 100 nM.

As to `COc1cc2c(cc1-c1cn(CC(N)=O)nc1C)-c1c(c(C(=O)N(C)C(C)(C)C)nn1-c1cc(Cl)cc(Cl)c1)CO2` [Compound 142], the EC50 was under 10 nM in experiment [1] and 10 to 100 nM in experiment [2].

Regarding `COc1cc2c(cc1-c1cncc(C(N)=O)c1)-c1c(c(C(=O)N(C)C(C)(C)C(N)=O)nn1-c1cc(F)cc(F)c1)CO2` [Compound 104, N-(1-amino-2-methyl-1-oxopropan-2-yl)-8-(5-carbamoylpyridin-3-yl)-1-(3,5-difluorophenyl)-7-methoxy-N-methyl-1,4-dihydrochromeno[4,3-c]pyrazole-3-carboxamide], the EC50 is 10 to 100 nM in experiment [1] and over 500 nM in experiment [2].

For the molecule `COc1cc2c(cc1-c1cnn(CC(=O)N(C)C)c1)-c1c(c(C(=O)N3CCOCC3(C)C)nn1-c1cc(Cl)cc(Cl)c1)CO2` [Compound 92, 2-(4-(1-(3,5-dichlorophenyl)-3-(3,3-dimethylmorpholine-4-carbonyl)-7-methoxy-1,4-dihydrochromeno[4,3-c]pyrazol-8-yl)-1H-pyrazol-1-yl)-N,N-dimethylacetamide], the values for the EC50 in experiment [1] and in experiment [2] were under 10 nM and 10 to 100 nM, respectively.

As to `COc1cc2c(cc1-c1cnn(CC(O)CO)c1)-c1c(c(C(=O)N(C)C(C)(C)C)nn1-c1cc(Cl)cc(Cl)c1)CO2` (centres unmarked) [Compound 190, N-tert-butyl-1-(3,5-dichlorophenyl)-8-(1-(2,3-dihydroxypropyl)-1H-pyrazol-4-yl)-7-methoxy-N-methyl-1,4-dihydrochromeno[4,3-c]pyrazole-3-carboxamide], the values for the EC50 in experiment [1] and in experiment [2] were 10 to 100 nM and over 500 nM, respectively.

Turning to `COc1cc2c(cc1-c1cc(C)cnc1OC)-c1c(c(C(=O)N(C)C(C)(C)C)nn1-c1cc(Cl)cc(Cl)c1)CO2` [Compound 189, N-tert-butyl-1-(3,5-dichlorophenyl)-7-methoxy-8-(2-methoxy-5-methylpyridin-3-yl)-N-methyl-1,4-dihydrochromeno[4,3-c]pyrazole-3-carboxamide], the EC50 in experiment [1] fell in the range of 10 to 100 nM; in experiment [2], 101 to 500 nM.

Regarding `COc1cc2c(cc1-c1cccc(C(=O)O)c1)-c1c(c(C(=O)N(C)C(C)(C)C)nn1-c1cc(Cl)cc(Cl)c1)CO2` [Compound 179], the EC50 in experiment [1] was in the range of 10 to 100 nM; in experiment [2], 101 to 500 nM.

`COc1cc(C(N)=O)cc(-c2cc3c(cc2OC)OCc2c(C(=O)N(C)C(C)(C)C)nn(-c4cc(Cl)cc(Cl)c4)c2-3)n1` [Compound 115, N-tert-butyl-8-(4-carbamoyl-6-methoxypyridin-2-yl)-1-(3,5-dichlorophenyl)-7-methoxy-N-methyl-1,4-dihydrochromeno[4,3-c]pyrazole-3-carboxamide]: the values for the EC50 in experiment [1] and in experiment [2] were under 10 nM and 101 to 500 nM, respectively.

On to `COc1cc2c(cc1-c1cncc(C(=O)N(C)C)c1)-c1c(c(C(=O)N3CCOCC3(C)C)nn1-c1cc(Cl)cc(Cl)c1)CO2` [Compound 101, 5-(1-(3,5-dichlorophenyl)-3-(3,3-dimethylmorpholine-4-carbonyl)-7-methoxy-1,4-dihydrochromeno[4,3-c]pyrazol-8-yl)-N,N-dimethylnicotinamide], for which the EC50 in experiment [1] was under 10 nM; in experiment [2], 10 to 100 nM.

`COc1cc2c(cc1-c1cnc(N)c(C)c1)-c1c(c(C(=O)N(C)C(C)(C)C)nn1-c1cc(Cl)cc(Cl)c1)CO2` [Compound 17, 8-(6-amino-5-methylpyridin-3-yl)-N-tert-butyl-1-(3,5-dichlorophenyl)-7-methoxy-N-methyl-1,4-dihydrochromeno[4,3-c]pyrazole-3-carboxamide]: the EC50 was under 10 nM in experiment [1] and 101 to 500 nM in experiment [2].

On to `COc1cc2c(cc1-c1cc(C(N)=O)ccn1)-c1c(c(C(=O)N(C)C(C)(C)C#N)nn1-c1cc(Cl)cc(Cl)c1)CO2` [Compound 120, 8-(4-carbamoylpyridin-2-yl)-N-(2-cyanopropan-2-yl)-1-(3,5-dichlorophenyl)-7-methoxy-N-methyl-1,4-dihydrochromeno[4,3-c]pyrazole-3-carboxamide], for which the EC50 in experiment [1] was under 10 nM; in experiment [2], 10 to 100 nM.

For `COc1cc2c(cc1-c1cncc(S(N)(=O)=O)c1)-c1c(c(C(=O)N(C)C(C)(C)C)nn1-c1cc(Cl)cc(Cl)c1)CO2` [Compound 66, N-tert-butyl-1-(3,5-dichlorophenyl)-7-methoxy-N-methyl-8-(5-sulfamoylpyridin-3-yl)-1,4-dihydrochromeno[4,3-c]pyrazole-3-carboxamide], the EC50 was under 10 nM in experiment [1] and 10 to 100 nM in experiment [2].

With `COc1cc2c(cc1-c1cnn(C(N)=O)c1)-c1c(c(C(=O)N(C)C(C)(C)C)nn1-c1cc(Cl)cc(Cl)c1)CO2` [Compound 181, N-tert-butyl-8-(1-carbamoyl-1H-pyrazol-4-yl)-1-(3,5-dichlorophenyl)-7-methoxy-N-methyl-1,4-dihydrochromeno[4,3-c]pyrazole-3-carboxamide], the EC50 in experiment [1] was under 10 nM; in experiment [2], 10 to 100 nM.

As to `COc1cc(F)cc(-n2nc(C(=O)N3CCOCC3(C)C)c3c2-c2cc(-c4ccn(C)n4)c(OC)cc2OC3)c1` [Compound 53, (3,3-dimethylmorpholino)(1-(3-fluoro-5-methoxyphenyl)-7-methoxy-8-(1-methyl-1H-pyrazol-3-yl)-1,4-dihydrochromeno[4,3-c]pyrazol-3-yl)methanone], the EC50 in experiment [1] lay within 10 to 100 nM; in experiment [2], 101 to 500 nM.

`COc1cc2c(cc1-c1cnn(CCO)c1)-c1c(c(C(=O)N(C)C(C)(C)C)nn1-c1cc(Cl)cc(Cl)c1)CO2` [Compound 1, N-tert-butyl-1-(3,5-dichlorophenyl)-8-(1-(2-hydroxyethyl)-1H-pyrazol-4-yl)-7-methoxy-N-methyl-1,4-dihydrochromeno[4,3-c]pyrazole-3-carboxamide]: the EC50 in experiment [1] was under 10 nM; in experiment [2] it was 10 to 100 nM.

As for `COc1cc2c(cc1-c1cncc(C(N)=O)c1)-c1c(c(C(=O)N3CCOCC3(C)C)nn1-c1cc(Cl)cc(Cl)c1)CO2` [Compound 169], the EC50 was under 10 nM in experiment [1] and 101 to 500 nM in experiment [2].

In the case of `COc1cc(OC)cc(-n2nc(C(=O)N3CCOCC3(C)C)c3c2-c2cc(-c4cccnc4F)c(OC)cc2OC3)c1` [Compound 42, (1-(3,5-dimethoxyphenyl)-8-(2-fluoropyridin-3-yl)-7-methoxy-1,4-dihydrochromeno[4,3-c]pyrazol-3-yl)(3,3-dimethylmorpholino)methanone], the EC50 is under 10 nM in experiment [1] and 10 to 100 nM in experiment [2].

Take `COc1cc2c(cc1-c1ccn(C)n1)-c1c(c(C(=O)N3C[C@H](O)[C@H](O)CC3(C)C)nn1-c1ccsc1)CO2` [Compound 130, ((4R,5S)-4,5-dihydroxy-2,2-dimethylpiperidin-1-yl)(7-methoxy-8-(1-methyl-1H-pyrazol-3-yl)-1-(thiophen-3-yl)-1,4-dihydrochromeno[4,3-c]pyrazol-3-yl)methanone]: the EC50 was 10 to 100 nM in experiment [1] and 101 to 500 nM in experiment [2].

As to `CNC(=O)c1cncc(-c2cc3c(cc2OC)OCc2c(C(=O)N4CCOCC4(C)C)nn(-c4cc(Cl)cc(Cl)c4)c2-3)c1` [Compound 94, 5-(1-(3,5-dichlorophenyl)-3-(3,3-dimethylmorpholine-4-carbonyl)-7-methoxy-1,4-dihydrochromeno[4,3-c]pyrazol-8-yl)-N-methylnicotinamide], the EC50 in experiment [1] and in experiment [2] was under 10 nM throughout.
